Consider 70 compounds from PubChem BioAssay AID179 (DTP/NCI, 2004).

The experiment has as its system CEM cells HIV-1 protection, formazan growth assay. Briefly: NCI AIDS Antiviral Assay. Particulars: for IC50: measured here: growth of uninfected CEM cells. A digest of the protocol:
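Five concentrations of each compound were applied to infected and uninfected human CEM cells. Protection from HIV-1 was judged from growth measured with a soluble formazan assay.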

Active and inactive are the calls of the source.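 The calls were made as follows: active = compounds giving half or more protection of infected cells from virus-caused growth loss, again on retest; inactive = the rest.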

Broadly, the EC50 is the concentration giving half of the maximal effect. As a reminder, the IC50 is the concentration that inhibits the measured activity by half. Low readings indicate greater potency in that assay, high ones weaker potency in that assay. As to `C[C@@H]1O[C@]2(O)[C@@H]3CCCN3S(=O)(=O)CCN2C1=O`, the EC50 was above 912 µM and the IC50 was above 912 µM.
As to `O=C1CCC2(c3ccc(F)cc3)Nc3cc([N+](=O)[O-])ccc3N12` (stereo not drawn), the EC50 was above 16.6 µM and the IC50 was above 16.6 µM.
`NNCCc1n[nH]c(=O)n1N`: the EC50 is above 200 µM and the IC50 was above 200 µM.
Consider `O=CN(CCNc1ccccc1)c1ccccc1`, for which the EC50 is above 200 µM and the IC50 was above 200 µM.
On to `O=C(Nc1ccc(C2=NCCN2)cc1)C1CCC(C(=O)Nc2ccc(C3=NCCN3)cc2)CC1` (stereo not drawn), for which the EC50 was above 200 µM and the IC50 is 11 µM.
For `NC(=S)N/N=C(/CCN1CCCC1)CC(C1=C(O)C2=CCCCC2OC1=O)c1ccccc1` (stereo not drawn), in that order: above 135 µM and above 135 µM.
For `O=C(ON=C1c2ccccc2C(Br)C(Br)c2ccccc21)c1ccccc1` (stereo not drawn), in that order: above 200 µM and 3.31 µM.
For `O=C(/C=C/c1ccsc1)c1ccc(Cl)cc1`, in that order: above 200 µM and 3.31 µM.
As for `C[Si](C)(C)C#CC#C[Si](C)(C)C.[Ni].[Ni].[Ni].[Ni].[c-]1[c-][c-][cH-][c-]1.[c-]1[c-][c-][cH-][c-]1.[c-]1[c-][c-][cH-][c-]1.[c-]1[c-][c-][cH-][c-]1`, the EC50 is above 2.09 µM and the concentration for half-maximal inhibition (IC50) is above 2.09 µM.
As for `CC(=O)CCC#Cc1ccccc1C(=O)C(C)=[N+]=[N-]`, the EC50 is above 50.1 µM and the IC50 is above 50.1 µM.
In the case of `NC(=S)N/N=C(\CCC(=O)Nc1ccccc1[N+](=O)[O-])CC(=O)c1ccco1`, the EC50 is above 234 µM and the concentration for half-maximal inhibition (IC50) was above 234 µM.
Consider `O=CC[C@]12CC(=O)OC(C=CC13OCCO3)C2`, for which the EC50 was above 200 µM and the 50% inhibitory concentration (IC50) is above 200 µM.
For the compound `CC1(C)CC(=O)C(C=NC(=S)c2ccccc2)=C(O)C1`, the EC50 was above 200 µM and the IC50 was above 200 µM.
On to `CC(C)/C=C/C1=C(O)c2ccccc2C(=O)C1=O`, for which the result was inactive.
The same measure, in the same setting: the same measure for `Cc1ccc2nc(C(=O)O)c(=O)[nH]c2c1`: “inactive”.
For the compound `COC(=O)c1cc2c(c(C(=O)OC)c1)CCC2`, the EC50 was above 200 µM and the 50% inhibitory concentration (IC50) worked out at 40.7 µM.
For `CCN(CC)c1c(C(=O)/C=C/c2ccc(Cl)cc2)c(-c2ccccc2)nn(C)c1=O`, in that order: above 23.4 µM and 4.9 µM.
For `O=[N+]([O-])c1ccc(S(=O)(=O)N/N=C/c2ccccc2[N+](=O)[O-])cc1`, in that order: above 102 µM and above 102 µM.
For the compound `O=c1c(O)c(-c2ccc(O)c(O)c2)oc2cc(O)cc(O)c12`, the result was inactive.
On to `CC1CC[P+](C)(Cc2ccccc2)C1` (mixture of isomers), for which the EC50 is above 437 µM and the concentration for half-maximal inhibition (IC50) worked out at 162 µM.
For `CCOC(=O)c1c(SC(=O)c2cc(OC)c(OC)c(OC)c2)n(-c2ccccc2)c(=S)n(-c2ccccc2)c1=O`, in that order: above 200 µM and 32.4 µM.
`CCOC(=O)NC(=O)c1cn(CCCCCOC(=O)NCCCCCCNC(=O)OCCCCCn2cc(C(=O)NC(=O)OCC)c(=O)[nH]c2=O)c(=O)[nH]c1=O`: the outcome was inactive.
Same read-out and setting: the entry for `O=C1CC(c2[nH]nc3ccccc23)C(=O)N1c1ccccc1` (stereo not drawn) is “inactive”.
Consider `N#CC1=C(c2ccccc2)C(=C2Nc3ccccc3N2)C2S/C(=C\c3ccccc3)C(=O)N2C1=N` (stereo not drawn), for which the EC50 was above 2.19 µM and the IC50 was above 2.19 µM.
As for `COc1c(C)c2nc3ccccc3[nH]c2c2c(=O)ccnc12`, the EC50 was above 100 µM and the half-inhibitory concentration (IC50) is above 100 µM.
As for `CC(/C=C/c1ncccc1OCCCCCC(=O)O)=N\NC1=NCCN1`, the EC50 was above 69.2 µM and the half-inhibitory concentration (IC50) was above 69.2 µM.
`CC(=O)O[C@]1(C)OC(=O)[C@@H](C)N1[N+](=O)[O-]`: the outcome was inactive.
Take `CC(=O)C1C(=O)C(=O)N(c2ccc([N+](=O)[O-])cc2[N+](=O)[O-])C1=O` (stereo not drawn): the EC50 is above 200 µM and the IC50 was above 200 µM.
`COC(=O)C1CCc2nnc(-c3ccccc3)n21` (stereo not drawn): the EC50 is 955 µM and the IC50 is 1020 µM.
In the case of `Cc1ccc(C2(C)CC(C)(C)c3ccc(C)cc3O2)c(O)c1` (stereo not drawn), the EC50 is above 200 µM and the half-inhibitory concentration (IC50) turned out to be 20.4 µM.
Turning to `C[N+](C)(C)C1(C(=O)[O-])CC1`, the EC50 was above 200 µM and the IC50 was above 200 µM.
With `CC(C)C1OC(N)=C(C#N)C1(C#N)C#N` (stereo not drawn), the EC50 was above 200 µM and the IC50 worked out at 7.41 µM.
As for `[NH-]CC[NH-].[NH-]CC[NH-].[NH-]CC[NH-].[Ni+2].[O-][Cl+3]([O-])([O-])O`, the EC50 is above 200 µM and the IC50 was 77.6 µM.
As for `O=C(NCCCl)c1ccc(Cl)c(Cl)c1`, the result was inactive.
Regarding `N#Cc1c(-c2ccc(Cl)cc2)[nH]c(=O)n(C2OC(CO)C(O)C(O)C2O)c1=O` (stereo not drawn), the EC50 was above 200 µM and the IC50 was above 200 µM.
Regarding `COc1ccc(C[N+](C)(C)N)cc1OC`, the EC50 was above 200 µM and the IC50 is above 200 µM.
Regarding `COC1/C=C/OC2(C)Oc3c(C)c(O)c4c(O)c(cc(OCC(=O)N(C)C5CCCC5)c4c3C2=O)NC(=O)/C(C)=C/C=C/C(C)C(O)C(C)C(O)C(C)C(OC(C)=O)C1C` (stereo not drawn), the EC50 was above 200 µM and the IC50 is 28.8 µM.
For `C=CCN1CCC(OC(=O)C(O)(C#CC)C2CCCC2)CC1` (stereo not drawn), in that order: above 200 µM and above 200 µM.
For `COc1ccc(-c2c(C#N)cnc(C)c2C)c(O)c1OC`, in that order: above 631 µM and 115 µM.
Regarding `COC1OC(COCc2ccc(Cl)cc2)C(OCc2ccc(Cl)cc2)C1O` (stereo not drawn), the outcome was inactive.
As for `N#CCCCCC12C3C(=O)N(c4ccccc4)C(=O)C3ON1O[C@@H]1C(=O)N(c3ccccc3)C(=O)[C@@H]12` (stereo partly drawn), the EC50 is above 200 µM and the half-maximal inhibitory concentration (IC50) was above 200 µM.
As for `CC1OC(OC2C(OC(=O)[C@]34CCC(C)(C)CC3C3=CCC5[C@@]6(C)C[C@H](O)[C@H](OC7OC(COC8OC(CO)C(O)C(O)C8O)C(O)C(O)C7O)[C@@](C)(C(=O)O)C6CC[C@@]5(C)C3(C)CC4)OCC(O)C2O)C(O)C(O)C1OC1OCC(O)C(O)C1O` (stereo partly drawn), the EC50 is above 110 µM and the 50% inhibitory concentration (IC50) was above 110 µM.
Regarding `O=C(O)c1ccc(CS(=O)(=O)c2ccc(Cl)cc2)c([N+](=O)[O-])c1`, the EC50 is above 708 µM and the 50% inhibitory concentration (IC50) is 324 µM.
`O=c1c2c3c(sc2nc2n1N=C(c1ccc([N+](=O)[O-])cc1)CS2)CCCC3`: the EC50 is above 200 µM and the IC50 is above 200 µM.
Turning to `Cc1nccc2c(C(=O)O)c(C(=O)O)[nH]c12`, the EC50 is above 170 µM and the IC50 is above 170 µM.
On to `CC(CO)(CO)N1C(=O)C2C3C=CC(C3)C2C1=O` (stereo not drawn), for which the EC50 is above 200 µM and the IC50 is above 200 µM.
As for `NNC(=O)c1c(SCc2ccccc2)nc2c3ccccc3ccn12`, the EC50 is above 200 µM and the 50% inhibitory concentration (IC50) is 15.8 µM.
Turning to `NC(CS/C=C\C(=O)O)C(=O)O` (stereo not drawn), the EC50 is above 27.5 µM and the IC50 is above 27.5 µM.
On to `COc1cccc(NC(=O)CSc2nnc(-c3ccc(N=Cc4ccc(Cl)cc4)cc3)o2)c1`, for which the EC50 was above 75.9 µM and the IC50 is 25.1 µM.
For `O=[N+]([O-])c1cccc(-c2ncnc(-c3cccc([N+](=O)[O-])c3)n2)c1`, in that order: above 100 µM and above 100 µM.
For `N#CC1C(=S)NC(c2ccccc2)=CC12CCCCC2` (stereo not drawn), in that order: above 200 µM and 42.7 µM.
Take `CC(C)N(C)C(=O)C12C3C4C1C1C2C3C41C#N` (stereo not drawn): the result was inactive.
`CCCCCCCCCCCCCCCCN1C(=O)/C(=C\c2ccc(O)cc2)SC1=Nc1ccccc1`: the EC50 is above 44.7 µM and the concentration for half-maximal inhibition (IC50) was above 44.7 µM.
Consider `Cc1ccc(NC(=O)CC2SC(N)=NC2=O)cc1C` (stereo not drawn), for which the outcome was inactive.
With `O=S(=O)(Nc1nnc2c3ccccc3cnn12)c1ccc(Cl)cc1S`, the EC50 was 36.3 µM and the 50% inhibitory concentration (IC50) amounted to 490 µM.
For `O=C(OC1C(OC(=O)c2cccnc2)C(OC(=O)c2cccnc2)C(OC(=O)c2cccnc2)C(OC(=O)c2cccnc2)C1OC(=O)c1cccnc1)c1cccnc1` (stereo not drawn), in that order: above 200 µM and above 200 µM.
For `COC1OC2COC1(OCc1ccccc1)C1OC(C)(C)OC21` (stereo not drawn), in that order: above 200 µM and above 200 µM.
Regarding `COC(=O)C(=O)C(C(=O)C(=O)Nc1ccccc1[N+](=O)[O-])c1nc2ccc([N+](=O)[O-])cc2[nH]c1=O` (stereo not drawn), the EC50 is above 269 µM and the IC50 was 245 µM.
In the case of `CC1=CCC2CC1NC(=O)CCOCCC(=O)NC2(C)C` (stereo not drawn), the EC50 is above 100 µM and the IC50 is above 100 µM.
With `Cc1nc2c(=O)n3c4c(cccc4c2o1)CCC3`, the EC50 is above 200 µM and the half-inhibitory concentration (IC50) was determined as 107 µM.
Consider `CCOc1cnc(C(O)(c2ccccc2)c2ccccc2)o1`, for which the EC50 was 19.1 µM and the half-maximal inhibitory concentration (IC50) was found to be 148 µM.
`CC1=CC(c2ccccc2)OP1(=O)c1ccccc1` (stereo not drawn): the EC50 was above 200 µM and the IC50 was above 200 µM.
Turning to `O=C(N/C(=C\c1cccc([N+](=O)[O-])c1)c1nc2[nH]c(=S)[nH]c(=O)c2[nH]1)c1ccccc1`, the outcome was inactive.
Take `c1cc2ccc1C1NCCCN1CCN1CCCNC1c1ccc(cc1)C1NCCCN1CCN1CCCNC21` (stereo not drawn): the EC50 is above 13.2 µM and the IC50 worked out at 9.33 µM.
`COc1ccc(C2S/C(=C\c3ccc(O)cc3)C(=O)N2NC(=O)Cc2ccccc2)cc1` (stereo not drawn): the EC50 is above 112 µM and the half-maximal inhibitory concentration (IC50) is above 112 µM.
Regarding `COC(=O)[C@H](Cc1ccccc1)NC(=O)/C(=C/C(C)C)NC(=O)[C@H](CCSC)NC=O`, the EC50 is above 550 µM and the IC50 is above 100 µM.
For `O=C(CSc1nnc(-c2ccc(N=Cc3ccc(Cl)cc3)cc2)o1)Nc1ccccc1`, in that order: above 112 µM and 42.7 µM.
For `O=c1[nH]nc(Cn2c3ccc(Br)cc3c3nc4ccccc4nc32)n1C1CCCCC1`, in that order: above 200 µM and 174 µM.
Consider `Cc1cn(C2CC(Sc3ccccn3)C(CO)O2)c(=O)[nH]c1=O` (stereo not drawn), for which the EC50 was above 372 µM and the half-maximal inhibitory concentration (IC50) stood at 316 µM.
Turning to `O=C1CCC(N2C(=O)c3ccccc3C2=O)C(=O)N1` (stereo not drawn), the outcome was inactive.
